# Reference: patent US20020169183A1, “Acridines as stimulators for Fas-mediated apoptosis” (priority 2001, published 2002)
# How the values were obtained:
# Hepatocytes = assay: Fas-dependent apoptosis by FACS analysis (DNA fragmentation, propidium iodide; annexin V); format: cell-based; conditions: at 10 μM
# Description: Assays for Fas-dependent apoptosis are known in the art. See, for example, Ruiz-Ruiz et al, Cell Death Diff. 6:271 (1999); and Muller et al., […]. 188:2033 (1998).
# Apoptosis is identified by detection of the DNA fragmentation pattern characteristic of apoptotic cell death. In this Example, apoptosis is detected and measured by FACS® analysis carried out in a FACScan® flow cytometer (Becton Dickinson) using CellQuest software. Quantification of DNA fragmentation is performed by FACS® analysis of propidium iodide-stained nuclei as described in Nicolletti et al., J. Immunol. Methods 139:271-279 (1991). Hepatocytes floating in the culture medium are collected by centrifugation at 200× g. Adherent hepatocytes are harvested by incubation with 1% trypsin for 1 min. The cells are washed in phosphate-buffered saline (PBS), suspended in hypotonic lysis buffer (0.1% sodium citrate, 0.1% Triton X, and […] propidium iodide) (Sigma) and incubated at 4° C. for 6 hours. Cells are then analyzed for DNA content by flow cytometry.
# Early apoptotic changes are identified using annexin V-Fluos (Boehringer Mannheim) which binds to phosphatidylserine molecules (PS) exposed on apoptotic, but not normal, cell membranes (PS is normally restricted to the inner leaflet of the cell membrane bilayer). […] Cells are incubated for 10-15 min and analyzed on a flow cytometer using CellQuest software. […]
# Synoviocytes = assay: Stimulation of Fas-mediated apoptosis: XTT cell viability with anti-human Fas antibody h-HFE7A, stimulation index; format: cell-based; conditions: 10 μM compound with h-HFE7A 1000 ng/mL, synoviocytes from rheumatoid arthritis patients, 16 hours
# From the text: Anti-human Fas antibody h-HFE7A, humanized antibody was obtained from Sankyo Co., Ltd. This antibody induces apoptosis when cross-linked with secondary antibody in vitro.
# Samples of human synovium were obtained from rheumatoid arthritis patients at the time of total knee replacement surgery or synoviectomy. Synovial tissue was minced into small pieces and was digested with collagenase and cultured in Ham's F12 medium supplemented with 10% fetal bovine serum (F10F) in a humidified 5% CO2 atmosphere at 37° C. Adherent cells were considered as synoviocytes and were cultivated in F10F.
# Cell viability was determined with the XTT method described in Cancer Res. 48:4827 (1988). Ninety-six well flat plates were precoated with anti-human IgG. h-HFE7A (1000 ng/mL) and/or 10 μM of a compound of this invention were added and incubated for 2 hours. Synoviocytes were seeded (10,000/well) and incubated for 16 hours. Background wells received culture medium only. XTT (2,3-Bis[2-methoxy-4-nitro-sulfophenyl]-2H-tetrazolium-5-carboxanilide), final concentration 200 μg/mL, and phenazine methosulfate, final concentration 5 μM, were added to each well, and further incubated for 4 hours. The absorbance at 450 nm was measured and cell viability was determined as follows: [formula]
# Enhancement of Fas-mediated apoptosis by compounds of this invention was determined by the stimulation index (SI): [formula] […]
structure (smiles),measurement,setting,value
"CCN(CC)CCCNc1c2ccccc2nc2ccccc12 [Compound 3, 9-[(3-diethylaminopropyl)amino]acridine]",stimulation of Fas-dependent apoptosis,Hepatocytes,shows stimulation
same,"Enhancement of Fas-mediated apoptosis, stimulation index (SI)",Synoviocytes,positive (An SI over 2.0 was considered positive)
